Our source for the IC50 values is BindingDB's records for patent US20250179094 (Medinno Pharmaceutical Technology (Zhuhai) Co., 2025).

Each structure is given as a SMILES string.

For the assay, the target named is T1, TGF-beta receptor type-1 (Homo sapiens, UniProt P36897).
T1 sequence (P36897 whole entry): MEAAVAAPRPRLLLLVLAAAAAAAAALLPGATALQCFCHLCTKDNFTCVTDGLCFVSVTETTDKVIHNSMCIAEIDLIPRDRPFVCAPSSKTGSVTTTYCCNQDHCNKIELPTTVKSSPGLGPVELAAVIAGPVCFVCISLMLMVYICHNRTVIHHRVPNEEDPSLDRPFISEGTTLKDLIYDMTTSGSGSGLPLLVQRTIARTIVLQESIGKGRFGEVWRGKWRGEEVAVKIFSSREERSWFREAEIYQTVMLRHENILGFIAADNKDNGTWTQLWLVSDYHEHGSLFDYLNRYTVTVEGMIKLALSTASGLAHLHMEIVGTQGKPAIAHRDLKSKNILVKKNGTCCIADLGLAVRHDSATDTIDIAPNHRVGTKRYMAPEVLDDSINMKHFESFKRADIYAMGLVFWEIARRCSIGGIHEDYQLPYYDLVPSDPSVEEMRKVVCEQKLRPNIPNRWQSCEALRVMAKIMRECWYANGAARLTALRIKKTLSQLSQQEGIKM
The assay is described as follows: Kinase Activity Assay. How it is done: The principle of the activity assay was that TGFβR1 phosphorylates the substrate TGFβR1tide, consuming ATP in the process. […] The specific experimental steps were as follows. Compounds were diluted 4-fold in DMSO in a dilution plate, with the final starting concentration of the compounds being 10 μM, across 10 concentration gradient points. The compounds were then further diluted 50-fold into the kinase reaction buffer and incubated on a shaker for 20 minutes. Kinase was formulated with an enzyme reaction buffer. 2 μl kinase was added to each well of the reaction plate. 1 μl of the compound diluted in buffer was added to each well, and then the plate was sealed with a sealing membrane and centrifuged at 1000 g for 30 seconds, leaving it at room temperature for 10 minutes. Solutions of TGFβR1tide and ATP were prepared with the kinase reaction buffer, and 2 μL of the TGFβR1tide/ATP solution was added to the reaction plate. The plate was sealed with a sealing film and centrifuged at 1000 g for 30 seconds. It was allowed to react at room temperature for 60 minutes. Subsequently, 4 μL of ADP-Glo was transferred to a 384-well reaction plate and centrifuged at 1000 rpm/min for 1 minute, followed by incubation at 25° C. for 40 minutes. Then, 8 μL of Detection solution was transferred to the 384-well reaction plate and centrifuged at 1000 rpm/min for 1 minute, after which it was incubated at 25° C. for 40 minutes. The RLU (Relative Luminescence Unit) signal was read using a BMG microplate reader, which was used to characterize the degree of kinase activity.
As to `Cc1cccc(-c2nn(C(C)C)cc2-c2ccnc(-c3nc4c([nH]3)CN(C(=O)N3CCN(C)CC3)C4)c2)n1` [US20250179094, Compound 22], it took 7.5 nM to reach half-maximal inhibition (IC50). As to `Cc1cccc(-c2nc3n(c2-c2ccnc(-c4nc5c([nH]4)CN(C(=O)N4CCN(C)CC4)C5)c2)CCOC3)n1` [US20250179094, Compound 61], the 50% inhibitory concentration (IC50) is 6.9 nM. Consider `Cc1cccc(-c2nn(Cc3cccc(F)c3)cc2-c2ccnc(-c3nc4c([nH]3)CN(C(=O)N3CCN(C)CC3)C4)c2)n1` [US20250179094, Compound 40], for which 1.6 nM corresponded to half-maximal inhibition (IC50). Then `Cc1cccc(-c2nn(Cc3ccccc3)cc2-c2ccnc(-c3nc4c([nH]3)CN(C(=O)N3CCN(C)CC3)C4)c2)n1` [US20250179094, Compound 23], with 0.9 nM; and `Cc1cccc(-c2nn(CC3CC3)cc2-c2ccnc(-c3nc4c([nH]3)CN(C(=O)N3CCN(C)CC3)C4)c2)n1` [US20250179094, Compound 43], with 2.7 nM. Consider `Cc1cccc(-c2nc3n(c2-c2ccnc(-c4nc5c([nH]4)CN(C(=O)N4CC[C@@H](O)C4)C5)c2)CCC3)n1` [US20250179094, Compound 15], for which the IC50 stood at 16 nM.

`Cc1cccc(-c2nn3c(c2-c2ccnc(-c4nc5c([nH]4)CN(C(=O)N4CCCC4)C5)c2)CCC3)n1` [US20250179094, Compound 72] gave an IC50 of 2 nM. With `Cc1cccc(-c2nn3c(c2-c2ccnc(-c4nc5c([nH]4)CN(C(=O)N4CCOCC4)C5)c2)CCC3)n1` [US20250179094, Compound 71], the IC50 stood at 0.67 nM. Then `CCn1cc(-c2ccnc(-c3nc4c([nH]3)CN(C(=O)N3CCN(C)CC3)C4)c2)c(-c2cccc(C)n2)n1` [US20250179094, Compound 38], with 4.4 nM; and `Cc1cccc(-c2nc[nH]c2-c2ccnc(-c3nc4c([nH]3)CN(C(=O)N3CCCC3)C4)c2)n1` [US20250179094, Compound 6], with 22 nM; and `Cc1cccc(-c2nc3n(c2-c2ccnc(-c4nc5c([nH]4)CN(C(=O)N4CCOCC4)C5)c2)CCC3)n1` [US20250179094, Compound 33], with 1.7 nM. With `Cc1cccc(-c2nn3c(c2-c2ccnc(-c4nc5c([nH]4)CN(C(=O)N4CCC(O)CC4)C5)c2)CCC3)n1` [US20250179094, Compound 70] the figure was 2.3 nM. Then `Cc1cccc(-c2nn(Cc3ccccc3)cc2-c2ccnc(-c3nc4c([nH]3)CN(C(=O)C3CC(O)C3)C4)c2)n1` (centres undefined) [US20250179094, Compound 56], with 23 nM; and `Cc1cccc(-c2nc[nH]c2-c2ccnc(-c3nc4c([nH]3)CN(C(=O)N3CCN(C)CC3)C4)c2)n1` [US20250179094, Compound 7], with 1.1 nM; and `Cc1cccc(-c2nn(Cc3cccc(F)c3)cc2-c2ccnc(-c3nc4c([nH]3)CN(C(=O)C3CC(O)C3)C4)c2)n1` (centres undefined) [US20250179094, Compound 57], with 9.9 nM.

As for `Cc1cccc(-c2nc3n(c2-c2ccnc(-c4nc5c([nH]4)CN(C(=O)N4CCC(O)CC4)C5)c2)CCC3)n1` [US20250179094, Compound 27], the IC50 came out at 4.3 nM. Then `Cc1cccc(-c2nn3c(c2-c2ccnc(-c4nc5c([nH]4)CN(C(=O)N4CCN(C)CC4)C5)c2)CCC3)n1` [US20250179094, Compound 62], with 0.9 nM; and `Cc1cccc(-c2nn(C)cc2-c2ccnc(-c3nc4c([nH]3)CN(C(=O)N3CCN(C)CC3)C4)c2)n1` [US20250179094, Compound 37], with 6.5 nM; and `Cc1cccc(-c2nc3n(c2-c2ccnc(-c4nc5c([nH]4)CN(C(=O)N4CC[C@@H](N(C)C)C4)C5)c2)CCC3)n1` [US20250179094, Compound 34], with 1.9 nM.
